Measured values: PMC11874377, “Fungal-derived methyldeoxaphomins target Plasmodium falciparum segregation through the inhibition of PfActin1” (Proceedings of the National Academy of Sciences of the …, 2025)
Where “and” joins values, the source holds several entries; their conditions need not be identical. Equal values may be shown once. Read-outs that look alike come from different tables or passages of the source.

Tests used:
[1] = system: P. falciparum multidrug resistant line Dd2; assay: SYBR Green I-based antiplasmodial assay, asexual blood stage, Dd2; type: cell-based, Plasmodium falciparum
Experimental: (§1) The antiplasmodial activity of these analogs was assessed in P. falciparum asexual blood stage using a SYBR Green I-based assay. Compounds were tested in both the multidrug resistant line Dd2, and the chloroquine-sensitive line 3D7, to probe any potential for preexisting resistance. […] These methyldeoxaphomin analogs were also cross-screened for cytotoxicity in the human cell line HepG2 to determine their selectivity for the Plasmodium parasite. […] This effect was maintained with analog NPDG-F where both R1 and R2 were substituted with OH groups. […] In addition, the hydroxyl group at carbon 7 seems to be critical for function as a drastic loss of potency was found in NPDG-D as compared to B and C. […]
(§2) Plasmodium blood stage culture
(§3) Parasite culture in the Chakrabarti lab was maintained following a modified Trager and Jensen protocol (Trager & Jensen, 1976) as previously described (Lee et al., 2021) with RPMI 1640 with 25 mM HEPES pH 7.4, 26 mM NaHCO3, 15 mg/L hypoxanthine, 0.5% Albumax II, 25 mg/L gentamycin, and 2% dextrose. Parasites were grown with human A+ erythrocytes obtained from Florida OneBlood. Cultures were kept in an incubator with 5% […]
(§4) Antiplasmodial activity screening
(§5) SYBR Green I-based fluorescence assay was performed as previously described (Lee et al., 2021) following protocols by Smilkstein et. al. (Smilkstein et al., 2004). Asynchronous Dd2 parasites were added to serially diluted compounds and incubated for 72 h at 5% CO2, 95% air at 37°C. Plates were then frozen at -80°C, thawed, and incubated for one hour with 1x SYBR Green I in a lysis buffer (20 mM Tris-HCL, 0.08% saponin, 5 mM EDTA, and 0.8% Triton X-100). Fluorescence was then read on a Synergy Neo2 multimode reader (BioTek Winsooki, VT). […]

[2] = system: P. falciparum chloroquine-sensitive line 3D7; assay: SYBR Green I-based antiplasmodial assay, asexual blood stage, 3D7; type: cell-based, Plasmodium falciparum
Experimental: as §1, §2, §3, §4, §5

[3] = system: P. falciparum; assay: Parasite reduction ratio (PRR); type: cell-based, Plasmodium falciparum; conditions: 10 × EC50
Experimental: After a 24 h lag phase, only 10^0.64 parasites are killed within the first replication cycle (48 h). […] We also examined the in vitro killing rate in Dd2 through flow cytometric analysis. […]
Parasite reduction ratio adapted from protocol by Sanz et al (Sanz et al., 2012). In brief, early ring stage mono-infected RBCs at 106 were incubated with a 10 x EC50 concentration of NPDG-F, DHA, or atovaquone for either 24, 48, 72, 96, or 120 h. Following incubations, cells were washed and serially diluted. After 3 weeks, growth was determined via SYBR […]
Green I staining. […]

[4] = system: P. berghei liver stage in HepG2 cells; assay: High content imaging liver stage screening; type: cell-based, Plasmodium berghei
Experimental: Given these findings, we sought to observe the effects of NPDG-F on hepatic merozoites to see whether they were similarly impacted. To this end, HepG2 cells were infected with P. berghei sporozoites expressing luciferase and seeded onto a microtiter plate with NPDG-F at 2 HPI. At 72 HPI, a high content imaging (HCI) readout of treated parasites was performed to observe the impact on parasite maturation and merozoite formation via the expression of liver stage maturation markers MSP1 and AMA1. […] Infected monolayers treated with 1.1 µM of methyldeoxaphomin NPDG-F from 2-55 HPI were immunolabeled to examine the localization of MSP1 and AMA1 relative to parasite DNA during the period of merozoite formation (Fig. 4G). […]
Parasite reduction ratio adapted from protocol by Sanz et al (Sanz et al., 2012). […] After 3 weeks, growth was determined via SYBR Green I staining. The PRR was calculated and graphed using Graphpad Prism version […]
To examine the impact of methyldeoxaphomin NDPG F on the Plasmodium liver stage, HepG2 cells were infected with a luciferase-expressing strain of P. berghei. […] At 48 HPI, luciferase expression was measured as described(Van Voorhis et al., 2016) and parasite growth was quantified. After 72 HPI, High content imaging was performed to observe the relative expression of MSP1 and AMA1, the size and quantity of exoerythrocytic form parasites, and the HepG2 area occupied. […]

`C=C1C(C)C2C(Cc3ccccc3)NC(=O)C23C(=O)C=CC(O)C(O)C(C)CC(C)CC=CC3C1O` (stereo not shown) [Methyldeoxaphomin NPDG-F] was tested, and the EC50 ([1]; Plasmodium falciparum, DD2, 72 h, read-out: Dd2 EC50, means from triplicate experiments ± SEM, 72 h) was 550 nM, the EC50 ([1]; Plasmodium falciparum, DD2, read-out: Dd2: Average EC50, average ± SEM of three replicates) was 550 ± 40 nM and the EC50 ([1]; Plasmodium falciparum, DD2, read-out: Dd2: EC50, individual replicates) was 500 nM. The EC50 ([1]; Plasmodium falciparum, DD2, read-out: EC50 in Dd2, abstract) was 550 nM, the EC50 ([1]; read-out: Dd2: EC50, individual replicates) was 580 nM and the EC50 ([2]; Plasmodium falciparum, 3D7, abstract, read-out: EC50 in 3D7) was 290 nM. The EC50 ([2]; Plasmodium falciparum, 3D7, average ± SEM of three replicates, read-out: 3D7: Average EC50) was 290 ± 30 nM, the EC50 ([2]; Plasmodium falciparum, 3D7, individual replicates, read-out: 3D7: EC50) was 230 nM and the EC50 ([2]; Plasmodium falciparum, 3D7, means from triplicate experiments ± SEM, read-out: 3D7 EC50) was 290 ± 30 nM. For the same compound, the EC50 ([2]; individual replicates, read-out: 3D7: EC50) was 310 nM and 330 nM, the “99.9% PCT (parasite clearance time)” value [3] was “more than 96 h” and the killing profile [3] was “gradual killing profile”. The lag phase [3] was 24 h, the “log(PRR)” value [3] was 0.64 and the “effect on liver-stage parasite development” value ([4]; 1.1 µM from 2-55 HPI) was “developmental failure during schizogony”. For the same compound, the “MSP1 positive exoerythrocytic form (EEF) parasites remaining in the monolayer” value ([4]; 72 HPI, added at 2 HPI) was “sharp increase”.
